# In patent US20060134119A1, “Drugs containing galectin 9” (priority 2003, published 2006):
# How the values were obtained:
# MM-RU = test: Induction of cell aggregation in MM-RU; type: cell-based, human; conditions: for aggregation: FIG. 14
# Description: Recombinant galectin-9 prepared via gene transfer into E. coli was added to MM-RU exogenously, and the efficacy of galectin-9 was then examined. As a result, galectin-9 induced aggregation of MM-RU at the concentration of 0.1 μM or higher. In addition, the galectin-9 efficacy was concentration-dependent, and significant between 0.3-1.0 μM.
# MOLT-4 cells [1] = test: Apoptosis analysis by PI method in MOLT-4 cells; type: cell-based, human
# Description: MOLT-4 (T cell), Jurkat (T cell), BALL-1 (B cell), THP-1 (acute monocytic leukemia derived cell), and HL60 (acute promyelotic leukemia derived cell) cells were obtained from American Type Culture Collection (ATCC). All the cell lines were maintained in an RPMI-1640 medium (Sigma, St. Louis, US) supplemented with 10% FCS in 5% Co2 at 37° C. Lactose (30 mM) was added to the culture medium to inhibit Gal-9 activity. The same concentration of sucrose was used as a control.
# Cells that underwent apoptosis induction were centrifuged at 4° C. for 5 min at 1,000 rpm, and the cell pellet was resuspended in PBS (300 μL), and adjusted to a final concentration of 70% by gradually adding 100% cold ethanol (700 μL) to the suspended cells with vortexing. Cells were fixed by incubation at 4° C. for 30 min, and centrifuged at 4° C. for 5 min at 1,000 rpm after adding PBS (1 mL), and the cell pellet was resuspended in PBS (440 μL). Cells were incubated with ribonuclease A (10 μL; the final concentration 50 μg/mL, Sigma, St. Louis, Mo., US) at 37° C. for 30 min, and with 2.5 mg/mL propidium iodide (4 μL; the final concentration of PI 20 μg/mL, Sigma) at 4° C. for 10 min in the dark. Stained cells were analyzed by flow cytometry (Sandstrom, K. et al., J Immunol Methods, 240: 55 (2000) and Zhang L. et al., Cancer Lett, 142: 129 (1999)) after removing aggregated cells through a nylon mesh and increasing the cell volume with PBS.
# (3) Cultured Cell Lines Were Incubated With rGal-9 for the Appropriate Length of Time, 24 hr for Instance. Apoptosis Analysis was Conducted by the Above-Described PI Method (1).
# Apoptotic activity was measured by the PI method. When cells are incubated with galectin-9, washed, then subjected to alcohol-fixation, and fragmented DNAs flow out of the cell. Subsequently, incubation with PI leads to a reduction in the fluorescence intensity of apoptotic cells. Apoptosis was examined by the percentage of the cells wherein their fluorescence intensity was reduced. […] This induction was at the same level as H2O2 (hydrogen peroxide solution) that was used as a positive control. In addition, the same results were obtained by another method for examining apoptosis, TUNEL assay.
# eosinophils = test: Effect of Gal-9 on induced apoptosis of eosinophils; type: cell-based
# CD4 T Cell = test: Apoptosis induction in non-activated normal CD4 T cells (Table 4); type: cell-based; conditions: 1 μM galectin-9, 1 μM galectin-3
# Description: (§1) For example, measurements of apoptosis induction in the presence of 1 μM galectin-9 are as shown in Table 4 below (also 1 μM for galectin-3 in Table 4).
# CD8 T Cell = test: Apoptosis induction in non-activated normal CD8 T cells (Table 4); type: cell-based; conditions: 1 μM galectin-9, 1 μM galectin-3
# Description: as §1
# MOLT-4 cells [2] = test: Ca2+ influx, Fluo-3 assay by flow cytometry; type: cell-based, human; conditions: Fluo-3 assay, FIG. 8
# Description: Cells (approx. 10^6 to 10^7 cells/mL) in the culture medium (10% FCS, RPMI-1640 containing 10 mM HEPES, pH 7.2) were incubated with fluo-3 AM (final concentration 10 μM, Dojindo, Kumamoto, Japan), an intracellular calcium indicator, at 37° C. for 30 min (Sharp, B. M. et al., Proc. Natl. Acad. Sci. USA, 93: 8294 (1996)). Then the cells were washed and resuspended in the culture medium (final concentration, approx. 2×10^5 cells/mL per sample). Intracellular calcium level was measured by flow cytometry. The resting cells were stimulated at 1 min after their fluorescence intensities were measured.
# Next, sequential measurement was restarted until different stimuli were applied. In lactose inhibition assay, cells were stimulated in the presence of 30 mM lactose. Sucrose (30 mM) was used as a control (Sano, H. et al., J. Imnunol., 165: 2156 (2000)). A23187 (calcium ionophore, final concentration 5 ng/mL, Wako, Osaka, Japan) was used as a positive control.
# CD4+ T cells = test: Apoptosis induction in peripheral blood CD4+ T cells, resting or anti-CD3 Ab-activated; type: cell-based, human; conditions: galectin (+), 1 μM rGal-9
# Description: To prepare a well plate coated with anti-CD3 Ab, 24 well palates were incubated with TBS solution (pH 8.0) containing 3 μg/mL anti-CD3 Ab (Inmunotech, Marseille, France) per well at 4° C. overnight, and each well was washed with PBS after removing anti-CD3 Ab solution.
# Mononuclear leukocyte fractions were isolated from heparinized blood using HISTOPAQUE (Registered trademark, SIGMA). CD4-Positive Isolation Kit (DYNAL, Oslo, Norway) was used for isolation of CD4+ T cells and Dynabeads M-450 CD8 (Registered trademark, DYNAL, Oslo, Norway) for isolation of CD8+ T cells, respectively, according to the manufacturer's instructions.
# To activate T cells, CD4+ or CD8+ cells at 1×10^6 cells/mL in an RPMI-1640 medium containing 10% FCS were incubated on the plate coated with anti-CD3 Ab for 20 to 24 hr at 37° C. in a 5% CO2 incubator, and incubated with rGal-9 [(His)6-Gal-9(S)] at 37° C. in a 5% CO2 incubator. Then apoptosis assay was conducted as described in (c). That is, cells were incubated with 50 μg/mL PI (SIGMA) at 37° C. for 10 min in the dark. Stained cells were analyzed by flow cytometry (Sandstrom, K. et al., J Immunol Methods, 240: 55 (2000) and Zhang L. et al., Cancer Lett, 142: 129 (1999)).
# Apoptosis assay was also conducted for non-activated (resting) T cells as described above after incubating them with rGal-9 [(His)6-Gal-9(S)] at 37° C. in a 5% Co2 incubator.
# For comparison, galectin-1 and -3 treated cells were analyzed.
# Next, apoptosis induction by Gal-9 in human peripheral blood T cells was examined. T cells were separated into CD4+ and CD8+ T cells followed by incubation in the presence or absence of anti-CD3 Ab. Resting T cells and anti-CD3 Ab-activated T cells were incubated with 1 μM rGal-9.
# [3] = recombinant galectin-9 added exogenously
substance,measurement,setting,value
Galectin-9: Recombinant human galectin-9 expressed in E. coli and purified on lactose-agarose,aggregation,MM-RU; 2 hr after addition,aggregation was observed
same,aggregation,MM-RU; 12 hr after addition,more intensive aggregation
same,concentration at which aggregation of MM-RU was induced,MM-RU; [3],≥ 0.1 µM
same,concentration at which the efficacy was significant,MM-RU; [3],0.3 to 1.0 µM
same,"apoptosis induction, Gal9 (+)","MOLT-4 cells [1]; MOLT4, incubation with galectin-9 at least 48 hr or more",34.5
same,"apoptosis induction, time and dose dependence",MOLT-4 cells [1]; PI method,time-dependent and dose-dependent
same,apoptosis induction,"MOLT-4 cells [1]; rGal-9 1 μM, 24 hr, FIG. 3",induced
same,"PI-stained cells, which underwent apoptosis","MOLT-4 cells [1]; rGal-9 1 μM, PI method, FIG. 1A, PBS control 14.8%",34.5%
same,effect on DEX-induced apoptosis,eosinophils,inhibits
same,effect on anti-Fas Ab-induced apoptosis,eosinophils,stimulates
same,"apoptosis induction, CD4 T Cell Resting",CD4 T Cell,1.8
same,"apoptosis induction, CD8 T Cell Resting",CD8 T Cell,1.4
same,calcium influx,MOLT-4 cells [2]; A23187 final concentration 5 ng/mL,increased calcium influx
same,time within which calcium influx increased after addition,MOLT-4 cells [2],10 to 20 s
same,"apoptosis induction, CD4",CD4+ T cells; CD3 (+) cells activated on anti-CD3 Ab-coated plates,41.7
same,"apoptosis induction, CD4",CD4+ T cells; CD3 (−) untreated resting cells,10.8
